From patent US20240116898A1, “NOVEL GLUTAMINYL CYCLASE INHIBITORS AND THE USE THEREOF IN TREATMENT OF VARIOUS DISEASES” (LTD "VALENTA-INTELLEKT", priority 2017, published 2024)

Legend:
[1] = test system: thermal pain irritation hot plate in Balb/c mice; details: mouse, in vivo
Method: The model of thermal pain irritation “hot plate” was carried out according to the standard procedure [Barrot M. Tests and models of nociception and pain in rodents. […] After 1 hour after the administration of the preparation, the “hot plate” test was carried out. To conduct the “hot plate” test, the mice were placed on the hot plate, the temperature (+55±1° C.) of which is constant.
The time of first manifestations of the pain response in mice (paw licking, jumping) was registered and the mean latent time of the threshold of pain sensitivity (TPS, sec) in each group was calculated.

[2] = test system: formaldehyde-induced pharyngitis in rats; test: Rat model of non-infectious pharyngitis (Evans blue exudation); format: in vivo
Method: The rats were anesthetized with sodium thiopentone (50 mg/kg, intraperitoneally) and a cannula with a RenaSil® silicone rubber tube (SIL 037, Braintree Scientific, Inc., Braintree, MA) was inserted into the external jugular vein using a heparinized saline solution (40 U/ml).
The Evans Blue dye (Evans Blue, EB) (30 mg/kg) was administered to all the animals intravenously through a catheter; 10 minutes after the EB dye was administered, a 30% formalin solution was applied to the surface of the pharyngeal mucosa as follows: the tongue was slightly pulled out, the pharyngeal area was opened deep in the mouth with blunt forceps and gently, using a sterile cotton pad, the formation solution (50 μl) was applied for 5 seconds each time it is applied. In the intact group thephysiologicla solution was used.
60 minutes after the application of 30% formalin solution, the animals were euthanized by the exsanguination. The head of each rat was perfused with the heparinized saline solution (40 U/ml) to remove the intravascular EB dye.
The degree of the inflammation was assessed by the exudation test of the Evans blue (EB) dye. […] The amount of dye in the fabric was calculated using the standard curve for the Evans blue dye, and was expressed in micrograms of the dye per gram of wet fabric weight (μg/g).
The formaldehyde solution with a concentration of 30% was adminstered to the control group.

[3] = test system: specific pain reaction by chemical irritation of the peritoneum in Balb/c mice; test: Abdominal constriction test (acetic acid) in mice; format: in vivo, mouse
Method: The model of the specific pain reaction by the method of chemical stimulation of peritoneum (“abdominal constriction” test) was carried out according to the standard procedure. To conduct the “abdominal constriction” test, Balb/c mice were intraperitoneally administered with 1% acetic acid in a volume of 10 ml per kg of the animal body weight. […] A quantity of constrictions (convulsive twitching of the abdominal muscles accompanied with stretching hind quarters and arching) was evaluated 15 minutes after the administration of acetic acid.

[4] = test system: carrageenan-induced rat paw edema; test: Carrageenan-induced rat paw edema; format: in vivo; details: 8 mg/kg, 2 hours after carrageenan
Method: Experiments were performed on male white nonlinear rats weighing 250-270 g.

[5] = 0.3 mg/kg intragastric 1 hour before acetic acid

O=C(NCCc1cnc[nH]1)C(=O)NCCc1cnc[nH]1 [Compound I, N,N′-bis[2-(1H-imidazol-4-yl)ethyl]oxalamide]
Duration of the pharmacological effect [1]: at least 24 hours | Decrease of the concentration of dye in the tissue compared to the control ([2]; 6 mg/kg): 2.8 times | Decrease of the concentration of dye in the tissue compared to the control ([2]; 18 mg/kg): 6.4 times

CC(C)(CC(=O)NCCc1cnc[nH]1)CC(=O)NCCc1cnc[nH]1 [Compound IX, N,N′-bis[2-(1H-imidazol-4-yl)ethyl]-3,3-dimethylpentanediamide]
Quantity of constrictions for 15 minutes [3, 5]: 11.6 ± 3.5

O=C(CCCCC(=O)NCCc1cnc[nH]1)NCCc1cnc[nH]1 [Compound VII, N,N′-bis[2-(1H-imidazol-4-yl)ethyl]adipamide]
Quantity of constrictions for 15 minutes [3, 5]: 17.6 ± 2.81

O=C(O)Cc1ccccc1Nc1c(Cl)cccc1Cl [Diclofenac, reference compound]
Inhibition of edema growth [4]: 42% | Effect on pharyngitis inflammation (dye concentration) ([2]; 8 mg/kg): no effect | The concentration of the dye in the tissue ([2]; 8 mg/kg intragastric 24 h and 1 h before formaldehyde): 0.112 ± 0.031 µg/mg

O=C(c1ccccc1)c1ccc2n1CCC2C(=O)O (stereo not drawn) [Ketorol, reference compound]
Quantity of constrictions for 15 minutes ([3]; 15 mg/kg): 23.60 ± 1.87
